Test results as given in US6592821B1, “Focusing of microparticles in microfluidic systems” (Caliper Technologies Corp., priority 1999, dated 2003).

What was measured:
Format in all cases: cell-based
U937 cells [1] = assay: TUNEL assay for apoptosis in microfluidic device; conditions: U937 cells treated to induce apoptosis; FIG. 5, untreated control FIG. 4
Protocol: A TUNEL assay (TdT (Terminal deoxynucleotidyl transferase)-mediated dUTP Nick End Labeling) was used to measure cellular apoptosis in accordance with the above-described methods and systems. In a TUNEL Assay, damaged DNA is labeled with fluorescinated nucleotides. Terminal deoxynucleotidyl transferase (TdT) binds to exposed 3′ ends of DNA fragments generated in response to apoptotic signals and catalyzes the addition of fluorescein-labeled deoxynucleotides. U937 cells were treated with Campthotecin to induce apoptosis. The cells were then harvested and fixed with 4% formaldehyde and stored in 80% ethanol at +4° C. until labeling was performed.
The cells were rehydrated in TBS buffer. They were then treated with 20 μg/ml of proteinase K for 5 minutes and resuspended in equilibration buffer. The cells were incubated in a working TdT labeling reaction mixture from Oncogene Research Products containing TdtT enzyme and FragEL TdT labeling reaction mix. […]
After washing the cells in TBS, they were resuspended in Hanks' Balanced Salt Solution with 10% OPTIPREP at 5×10^6/ml and loaded in a microfluidic device having the channel geometry shown in FIG. 1A, for analysis. Fluorescence was detected using 488 nm excitation, while emission was read at 525 nm and 680 nm.

U937 cells [2] = assay: Annexin-V assay for apoptosis in microfluidic device; conditions: U937 cells treated to induce apoptosis; FIG. 7, untreated control FIG. 6
Protocol: In an Annexin-V assay, change in the outer membrane of apoptotic cells is detected. A membrane component, phosphatidylserine (PS) is translocated to the outer layer. Annexin-V binds to PS and is conjugated to biotin to allow secondary reactions to fluorescently labeled Streptavidin for detection. U937 cells were treated with Campthotecin to induce apoptosis. The cells were harvested and washed in phosphate buffered saline (PBS). Cells were incubated with Annexin-V-Biotin (Boehringer Mannheim) in HEPES buffer, and then incubated with 5 μg streptavidin-Cy5 (Amersham) and […] of Calcein-AM dye in HEPES buffer. The HEPES buffer solution contained 10 mM HEPES, pH 7.4; 140 mM NaCl; and a 5 mM CaCl2. The cells were washed and resuspended in HEPES buffer with 8.5% sucrose and loaded in a microfluidic device for analysis. Fluorescence was detected using excitation at 488 nm and 635 nm, and emission was read at 525 nm and 682 nm.

HL-60 cells = assay: TUNEL assay for apoptosis in microfluidic device; conditions: HL-60 cells treated for 6 hours; FIG. 8, untreated control FIG. 9
HL60 cells = assay: Annexin-V assay for apoptosis in microfluidic device; conditions: HL60 cells treated for four hours; FIG. 12, untreated control FIG. 13

CC[C@@]1(O)C(=O)OCc2c1cc1n(c2=O)Cc2cc3ccccc3nc2-1 [Campthotecin]
apoptotic cells (fluorescein end labeled nucleic acid peaks vs SYTO-62 cell peaks) (U937 cells [1]): corresponding peaks are seen on both the lower and upper lines, indicating the presence of apoptotic cells | apoptotic cells (Annexin-V-Cy5 peaks vs Calcein live cell count) (U937 cells [2]): much greater number of peaks representing apoptotic cells | apoptotic cells labeled at DNA damage points vs total cell count (HL-60 cells): almost all cells had sustained apoptotic DNA damage | apoptotic cells (Annexin-V-Cy5 labeling vs Calcein live cell count) (HL60 cells): almost all cells are apoptotic
